Laboratory results taken from PMC6412877 (Molecules, 2019).
Numbered stars: 1 amine (or outer) side, 2 acyl side, 3 side chain; on linkers, the order of the positions; unused ones are H or OH. Side chains are listed from the residue outwards. Ends that are not written are not given here. Peptide text beside a SMILES is read from it. * marks the point of attachment. C18 diacid = O=C(O)CCCCCCCCCCCCCCCCC(=O)*; γGlu = O=C(O)[C@H](CCC(=O)[*:2])N[*:1]; AEEA = NCCOCCOCC(=O)O

Tests used:
[1] = tested on: full-length GLP-1R; conditions: ref [23],[24]; cited from earlier work
From the text: (§1) GLP-1R, is defined by seven transmembrane helices, an extracellular N terminus, and an intracellular C terminus, which is ligand binding via the extracellular and intracellular face, respectively, belongs to family B1 of the seven-transmembrane G protein-coupled receptors.

[2] = tested on: isolated ECD (GLP-1R); conditions: ref [23],[24]; cited from earlier work
From the text: as §1

[3] = molecular target: GLP-1R ECD (Homo sapiens, UniProt P43220); assay: SPR binding affinity for GLP-1R extracellular domain (Biacore 8K); conditions: Table 1, peptides 01-12
Sequence of GLP-1R ECD (P43220 24-139 limits assumed): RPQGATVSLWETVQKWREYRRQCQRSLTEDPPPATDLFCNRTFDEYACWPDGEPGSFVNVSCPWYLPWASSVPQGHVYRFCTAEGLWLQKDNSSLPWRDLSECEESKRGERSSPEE
Protocol: Surface Plasmon Resonance (SPR) measurements were performed with Biacore 8K (GE Health, Boston, MA, USA) for evaluating the associating affinity peptides for GLP1R ECD. Experimental details were carried out according to the Biacore 8K user’s manual.

[4] = molecular target: Human GLP-1R (Homo sapiens, UniProt P43220); assay: In vitro GLP-1R activation, human receptor; format: cell-based; conditions: mean ± SD
Sequence of Human GLP-1R (P43220 24-463): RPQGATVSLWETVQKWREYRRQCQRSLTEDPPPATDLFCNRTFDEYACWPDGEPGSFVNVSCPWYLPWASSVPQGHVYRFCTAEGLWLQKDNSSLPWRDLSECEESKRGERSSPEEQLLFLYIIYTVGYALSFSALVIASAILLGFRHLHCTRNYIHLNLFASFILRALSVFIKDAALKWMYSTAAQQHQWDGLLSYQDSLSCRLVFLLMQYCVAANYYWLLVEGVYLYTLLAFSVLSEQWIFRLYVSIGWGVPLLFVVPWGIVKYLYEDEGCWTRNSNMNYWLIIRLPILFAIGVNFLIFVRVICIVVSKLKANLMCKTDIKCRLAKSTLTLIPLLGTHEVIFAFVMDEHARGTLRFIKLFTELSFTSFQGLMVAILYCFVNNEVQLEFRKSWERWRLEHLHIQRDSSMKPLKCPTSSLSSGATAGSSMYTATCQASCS

[5] = molecular target: T1, Mouse GLP-1R (Mus musculus, UniProt O35659); assay: In vitro GLP-1R activation, mouse receptor; format: cell-based; conditions: mean ± SD
T1 sequence (O35659 22-463): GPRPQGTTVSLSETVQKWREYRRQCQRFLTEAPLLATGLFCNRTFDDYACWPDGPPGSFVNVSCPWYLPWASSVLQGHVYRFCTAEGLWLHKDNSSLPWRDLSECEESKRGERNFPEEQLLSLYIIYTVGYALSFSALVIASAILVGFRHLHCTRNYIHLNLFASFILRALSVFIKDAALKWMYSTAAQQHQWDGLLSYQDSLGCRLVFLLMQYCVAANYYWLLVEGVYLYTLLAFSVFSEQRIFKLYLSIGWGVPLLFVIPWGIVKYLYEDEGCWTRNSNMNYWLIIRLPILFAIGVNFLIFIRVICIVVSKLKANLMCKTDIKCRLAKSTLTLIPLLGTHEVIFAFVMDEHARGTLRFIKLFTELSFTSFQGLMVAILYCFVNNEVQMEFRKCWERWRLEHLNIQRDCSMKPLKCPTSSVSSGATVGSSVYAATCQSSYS

[6] = tested on: diet-induced obesity (DIO) mice; assay: Oral glucose tolerance test (glucoregulatory and insulin secretion assay) in DIO mice; format: in vivo; conditions: male DIO mice, n = 6
Protocol: Half hour after single dose injection of different samples, the mice were administrated with glucose (2.0 g/kg), and then the blood glucose and insulin levels were detected before and at 15, 30, 45, 60 and 120 min by the ELISA kit (Merck).

[7] = tested on: DIO mice; assay: Hypoglycemic duration test in non-fasted DIO mice; format: in vivo; conditions: male DIO mice, not fasted, 25 nmol/kg single s.c., n = 6
Protocol: The antihyperglycemic efficacy of PEP20 was investigated in male DIO mice. The BGLs of PEP20 group decreased rapidly to the normoglycemic state (<15 mmol/L) in 1 h after the administration of 25 nmol/kg. […] BGLs were detected using a one-touch blood glucose meter. Glucose-lowering duration under 8.35 mmol/L BGL was also checked

[8] = tested on: DIO mice; assay: Chronic in vivo study, 4 weeks, DIO mice; conditions: 25 nmol/kg s.c. once daily for 4 weeks
Protocol: To further examine the therapeutic potential of PEP20, chronic in vivo studies were performed by a daily subcutaneous (s.c.) injection of PEP20 (25 nmol/kg) in DIO mice for 4 weeks. […] Body weight, food intake, and water consumption were measured daily. DIO mice were subjected to OGTT at week 0 and at week 4 to evaluate the advance of diabetic statuses. HbA1c were measured after the treatment using an AU680 automatic biochemical analyzer (Beckman Coulter, Fullerton, […]).

| Compound | Kd [3] | Emax [4] | Emax [5] | further results |
| --- | --- | --- | --- | --- |
| CC[C@H](C)[C@H](NC(=O)[C@H](Cc1ccccc1)NC(=O)[C@H](CCC(=O)O)NC(=O)[C@H](CCCCN)NC(=O)[C@H](C)NC(=O)[C@H](C)NC(=O)[C@H](CCC(N)=O)NC(=O)CNC(=O)[C@H](CCC(=O)O)NC(=O)[C@H](CC(C)C)NC(=O)[C@H](Cc1ccc(O)cc1)NC(=O)[C@H](CO)NC(=O)[C@H](CO)NC(=O)[C@@H](NC(=O)[C@H](CC(=O)O)NC(=O)[C@H](CO)NC(=O)[C@@H](NC(=O)[C@H](Cc1ccccc1)NC(=O)[C@@H](NC(=O)CNC(=O)[C@H](CCC(=O)O)NC(=O)[C@H](C)NC(=O)[C@@H](N)Cc1c[nH]cn1)[C@@H](C)O)[C@@H](C)O)C(C)C)C(=O)N[C@@H](C)C(=O)N[C@@H](Cc1c[nH]c2ccccc12)C(=O)N[C@@H](CC(C)C)C(=O)N[C@H](C(=O)N[C@@H](CCCCN)C(=O)NCC(=O)N[C@@H](CCCNC(=N)N)C(N)=O)C(C)C [GLP-1, Glucagon-like peptide-1] | – | – | – | IC50 [1]: ~1 nM; IC50 [2]: ~100 nM |
| CC(C)C[C@H](NC(=O)[C@H](Cc1ccc(O)cc1)NC(=O)[C@H](C)NC(=O)[C@H](CO)NC(=O)[C@@H]1CCCN1C(=O)[C@H](CO)NC(=O)[C@H](CO)NC(=O)[C@H](Cc1ccc(O)cc1)NC(=O)[C@H](Cc1ccccc1)NC(=O)[C@@H](N)Cc1ccccc1)C(=O)N[C@@H](CCC(=O)O)C(=O)N[C@H](C(=O)O)[C@@H](C)O [PEP01] | 740 nM | – | – | – |
| CC(C)C[C@H](NC(=O)[C@H](Cc1ccc(O)cc1)NC(=O)[C@H](CO)NC(=O)[C@H](CO)NC(=O)[C@@H](NC(=O)CNC(=O)[C@H](CCC(=O)O)NC(=O)[C@H](CO)NC(=O)[C@@H](NC(=O)[C@@H](N)Cc1ccccc1)[C@@H](C)O)[C@@H](C)O)C(=O)N[C@@H](CCC(=O)O)C(=O)N[C@H](C(=O)O)[C@@H](C)O [PEP04] | 3990 nM | – | – | – |
| CC[C@H](C)[C@H](NC(=O)[C@H](Cc1ccccc1)NC(=O)[C@@H](N)CCC(=O)O)C(=O)N[C@@H](C)C(=O)N[C@H](C(=O)N[C@@H](C)C(=O)N[C@@H](Cc1c[nH]c2ccccc12)C(=O)N[C@@H](CC(C)C)C(=O)N[C@H](C(=O)N[C@@H](CCCCN)C(=O)N[C@@H](CCC(N)=O)C(=O)N[C@H](C(=O)O)[C@@H](C)O)C(C)C)[C@@H](C)O [PEP06] | 2590 nM | – | – | – |
| CC(C)C[C@H](NC(=O)[C@H](CCCCN)NC(=O)[C@H](C)NC(=O)[C@H](CO)NC(=O)[C@@H]1CCCN1C(=O)[C@H](CO)NC(=O)[C@H](CO)NC(=O)[C@H](Cc1ccc(O)cc1)NC(=O)[C@H](Cc1ccccc1)NC(=O)[C@@H](N)Cc1ccccc1)C(=O)N[C@@H](CCC(=O)O)C(=O)N[C@H](C(=O)NCC(=O)NCC(=O)N1CCC[C@H]1C(=O)N[C@@H](CO)C(=O)N[C@@H](CO)C(=O)NCC(=O)N[C@@H](C)C(=O)N1CCC[C@H]1C(=O)N1CCC[C@H]1C(=O)N1CCC[C@H]1C(=O)N[C@@H](CO)C(N)=O)[C@@H](C)O [PEP13] | – | 96 ± 4.1% | 110 ± 9.4% | EC50 [4]: 0.064 ± 0.022 nM; EC50 [5]: 0.051 ± 0.009 nM |
| C[C@H](NC(=O)[C@H](CO)NC(=O)[C@@H]1CCCN1C(=O)[C@H](CO)NC(=O)[C@H](CO)NC(=O)[C@H](Cc1ccc(O)cc1)NC(=O)[C@H](Cc1ccccc1)NC(=O)[C@@H](N)Cc1ccccc1)C(=O)N[C@@H](Cc1ccc(O)cc1)C(=O)N[C@@H](CCCCN)C(=O)N[C@@H](CCC(=O)O)C(=O)N[C@H](C(=O)NCC(=O)NCC(=O)N1CCC[C@H]1C(=O)N[C@@H](CO)C(=O)N[C@@H](CO)C(=O)NCC(=O)N[C@@H](C)C(=O)N1CCC[C@H]1C(=O)N1CCC[C@H]1C(=O)N1CCC[C@H]1C(=O)N[C@@H](CO)C(N)=O)[C@@H](C)O [PEP14] | – | 105 ± 9.2% | 150 ± 10.9% | – |
| CC(C)C[C@H](NC(=O)[C@H](CCCCNC(=O)COCCOCCNC(=O)COCCOCCNC(=O)CC[C@H](NC(=O)CCCCCCCCCCCCCCCCC(=O)O)C(=O)O)NC(=O)[C@H](C)NC(=O)[C@H](CO)NC(=O)[C@@H]1CCCN1C(=O)[C@H](CO)NC(=O)[C@H](CO)NC(=O)[C@H](Cc1ccc(O)cc1)NC(=O)[C@H](Cc1ccccc1)NC(=O)[C@@H](N)Cc1ccccc1)C(=O)N[C@@H](CCC(=O)O)C(=O)N[C@H](C(=O)NCC(=O)NCC(=O)N1CCC[C@H]1C(=O)N[C@@H](CO)C(=O)N[C@@H](CO)C(=O)NCC(=O)N[C@@H](C)C(=O)N1CCC[C@H]1C(=O)N1CCC[C@H]1C(=O)N1CCC[C@H]1C(=O)N[C@@H](CO)C(=O)O)[C@@H](C)O [PEP17] (H-FFYSSPSAK([AEEA-AEEA-γGlu-C18 diacid])LETGGPSSGAPPPS-OH; N-terminus and C-terminus assumed) | – | 79 ± 6.4% | 68 ± 5.9% | – |
| C[C@H](NC(=O)[C@H](CO)NC(=O)[C@@H]1CCCN1C(=O)[C@H](CO)NC(=O)[C@H](CO)NC(=O)[C@H](Cc1ccc(O)cc1)NC(=O)[C@H](Cc1ccccc1)NC(=O)[C@@H](N)Cc1ccccc1)C(=O)N[C@@H](Cc1ccc(O)cc1)C(=O)N[C@@H](CCCCNC(=O)COCCOCCNC(=O)COCCOCCNC(=O)CC[C@H](NC(=O)CCCCCCCCCCCCCCCCC(=O)O)C(=O)O)C(=O)N[C@@H](CCC(=O)O)C(=O)N[C@H](C(=O)NCC(=O)NCC(=O)N1CCC[C@H]1C(=O)N[C@@H](CO)C(=O)N[C@@H](CO)C(=O)NCC(=O)N[C@@H](C)C(=O)N1CCC[C@H]1C(=O)N1CCC[C@H]1C(=O)N1CCC[C@H]1C(=O)N[C@@H](CO)C(=O)O)[C@@H](C)O [PEP18] | – | 78 ± 6.4% | 78 ± 3.5% | – |
| CC(C)C[C@H](NC(=O)[C@H](Cc1ccc(O)cc1)NC(=O)[C@H](C)NC(=O)[C@H](CO)NC(=O)[C@@H]1CCCN1C(=O)[C@H](CO)NC(=O)[C@H](CO)NC(=O)[C@H](Cc1ccc(O)cc1)NC(=O)[C@H](Cc1ccccc1)NC(=O)[C@@H](N)Cc1ccccc1)C(=O)N[C@@H](CCCCNC(=O)COCCOCCNC(=O)COCCOCCNC(=O)CC[C@H](NC(=O)CCCCCCCCCCCCCCCCC(=O)O)C(=O)O)C(=O)N[C@H](C(=O)NCC(=O)NCC(=O)N1CCC[C@H]1C(=O)N[C@@H](CO)C(=O)N[C@@H](CO)C(=O)NCC(=O)N[C@@H](C)C(=O)N1CCC[C@H]1C(=O)N1CCC[C@H]1C(=O)N1CCC[C@H]1C(=O)N[C@@H](CO)C(=O)O)[C@@H](C)O [PEP19] (H-FFYSSPSAYLK([AEEA-AEEA-γGlu-C18 diacid])TGGPSSGAPPPS-OH; N-terminus and C-terminus assumed) | – | 89 ± 6.2% | 83 ± 3.2% | – |
| CC(C)C[C@H](NC(=O)[C@H](Cc1ccc(O)cc1)NC(=O)[C@H](C)NC(=O)[C@H](CO)NC(=O)[C@@H]1CCCN1C(=O)[C@H](CO)NC(=O)[C@H](CO)NC(=O)[C@H](Cc1ccc(O)cc1)NC(=O)[C@H](Cc1ccccc1)NC(=O)[C@@H](N)Cc1ccccc1)C(=O)N[C@@H](CCC(=O)O)C(=O)N[C@@H](CCCCNC(=O)COCCOCCNC(=O)COCCOCCNC(=O)CC[C@H](NC(=O)CCCCCCCCCCCCCCCCC(=O)O)C(=O)O)C(=O)NCC(=O)NCC(=O)N1CCC[C@H]1C(=O)N[C@@H](CO)C(=O)N[C@@H](CO)C(=O)NCC(=O)N[C@@H](C)C(=O)N1CCC[C@H]1C(=O)N1CCC[C@H]1C(=O)N1CCC[C@H]1C(=O)N[C@@H](CO)C(=O)O [PEP20] (H-FFYSSPSAYLEK([AEEA-AEEA-γGlu-C18 diacid])GGPSSGAPPPS-OH; N-terminus and C-terminus assumed) | – | 98 ± 8.1% | 99 ± 7.2% | plasma insulin concentrations from 15 to 60 min versus control ([6]; OGTT, 25 nmol/kg s.c., ELISA): significantly greater than those of the control group; glucose-lowering percentage compared with vehicle control group ([6]; OGTT, 25 nmol/kg single s.c., glucose 2.0 g/kg): 60.2%; blood glucose level (BGL) half an hour after glucose challenge ([6]; 25 nmol/kg single s.c., oral glucose 2.0 g/kg, vehicle 23.6 ± 3.1): 10.1 mmol/L; duration of glucose-lowering effect ([7]; followed for 96 h): at least 96 h; lowering of glucose level for 0–96 h (AUC0–96 h) compared with vehicle group [7]: 63.8%; time to normoglycemic state (<15 mmol/L) after administration [7]: ≤ 1 h; body weight gain ([8]; n = 6): effectively suppressed; decrease of OGTT AUC at 4 weeks compared with week 0 ([8]; n = 6): 22.1%; food intake ([8]; n = 6): effectively suppressed; HbA1c versus control group ([8]; p < 0.001, n = 6): reduction |
| FFYSSPSAYLEKGGPSSGAPPPS [PEP16] | – | 92 ± 7.1% | 93 ± 9.3% | – |
| FFYSSPSAYLKTGGPSSGAPPPS [PEP15] | – | 78 ± 9.1% | 73 ± 6.4% | – |
| KQYSSPTAWLVG [PEP03] | 1750 nM | – | – | – |
